Experimental data: ChEMBL document CHEMBL1130708, “Cytotoxic cycloartane-type triterpenes from Combretum quadrangulare” (1998)

Experiment: Compound was tested for cytotoxic activity against murine colon 26-L5 carcinoma cells
Assay type: functional
Settings: Mus musculus; read-out: ED50 (the source's name)

Row | SMILES | EC50
1 | C=C(CC[C@@H](C)[C@H]1CC[C@@]2(C)[C@@H]3CC[C@H]4[C@](C)(C(=O)O)[C@@H](OC(C)=O)C[C@H](OC(C)=O)[C@@]45C[C@@]35CC[C@]12C)C(C)C | 52.5 µM
2 | C=C(CC[C@@H](C)[C@H]1CC[C@@]2(C)[C@@H]3CC[C@H]4[C@](C)(C(=O)OC)[C@@H](OC(C)=O)C[C@@H]5O[C@H](C[C@]12C)[C@]31C[C@]541)C(C)C | 77.8 µM
3 | COC(=O)[C@]1(C)[C@@H](O)C[C@H](O)[C@]23C[C@]24CC[C@]2(C)[C@@H]([C@H](C=O)C/C=C/C(C)(C)OO)CC[C@@]2(C)[C@@H]4CC[C@@H]13 | 9.54 µM
4 | C=C(C)[C@@H]1CC[C@H]([C@H]2CC[C@@]3(C)[C@@H]4CC[C@H]5[C@](C)(C(=O)OC)[C@@H](O)C[C@H](O)[C@@]56C[C@@]46CC[C@]23C)[C@@H](OC)O1 | 18.1 µM
5 | COC(=O)[C@]1(C)[C@@H](O)C[C@H](O)[C@]23C[C@]24CC[C@]2(C)[C@@H]([C@H](C=O)C/C=C/C(C)(C)O)CC[C@@]2(C)[C@@H]4CC[C@@H]13 | 43.8 µM
6 | C=C(CC[C@@H](C)[C@H]1CC[C@@]2(C)[C@@H]3CC[C@H]4[C@](C)(C(=O)O)[C@@H](O)C[C@H](OC(C)=O)[C@@]45C[C@@]35CC[C@]12C)C(C)C | 57.6 µM
7 | C=C(CC[C@@H](C)[C@H]1CC[C@@]2(C)[C@@H]3CC[C@H]4[C@](C)(C(=O)O)[C@@H](O)CC[C@@]45C[C@@]35CC[C@]12C)C(C)C | 62.4 µM
8 | C=C(CC[C@@H](C)[C@H]1CC[C@@]2(C)[C@@H]3CC[C@H]4[C@](C)(C(=O)O)[C@@H](O)CC(=O)[C@@]45C[C@@]35CC[C@]12C)C(C)C | 58.6 µM
9 | C=C(CC[C@@H](C)[C@H]1CC[C@@]2(C)[C@@H]3CC[C@H]4[C@](C)(C(=O)O)[C@@H](O)C[C@H](O)[C@@]45C[C@@]35CC[C@]12C)C(C)C | 49.6 µM
10 | C=C(CC[C@@H](C)[C@H]1CC[C@@]2(C)[C@@H]3CC[C@H]4[C@](C)(C(=O)OC)[C@@H](O)C[C@@H]5O[C@H](C[C@]12C)[C@]31C[C@]541)C(C)C | 5.42 µM
